Results taken from article PMC2651799 (Nucleic Acids Research, 2009).

Target: T1, RmtA (Pseudomonas aeruginosa, UniProt Q8GRA1)
T1 sequence (Q8GRA1 1-251): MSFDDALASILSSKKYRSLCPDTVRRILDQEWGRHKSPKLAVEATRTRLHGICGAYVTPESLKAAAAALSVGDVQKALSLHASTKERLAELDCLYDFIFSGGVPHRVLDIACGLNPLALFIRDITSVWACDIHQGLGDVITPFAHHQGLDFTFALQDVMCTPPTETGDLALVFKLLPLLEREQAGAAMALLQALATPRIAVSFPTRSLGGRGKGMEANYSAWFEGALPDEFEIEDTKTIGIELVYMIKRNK
Format: biochemical

Compound | IC50 [µM]
Nc1ncnc2c1ncn2[C@@H]1O[C@H](CSCC[C@H](N)C(=O)O)[C@@H](O)[C@H]1O [SAH] | 9.33 ± 0.07
Nc1ncnc2c1ncn2[C@@H]1O[C@H](C[C@@H](N)CC[C@H](N)C(=O)O)[C@@H](O)[C@H]1O [sinefungin] | 19.95 ± 0.09
